Patent US12077503B2, “Substituted cyclic amides and their use as herbicides” (FMC CORPORATION, priority 2015, dated 2024)

What was measured:
Format in all cases: in vivo
[1] = test system: Kochia (Kochia scoparia); assay: Test A preemergence; settings: Bassia scoparia, pre-emergence, 240 h, preemergence, 0 to 100 scale where 0 is no effect and 100 is complete control, read-out: Kochia plant response rating
Summary of the method: (§1)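 Treatment is preemergence as a directed soil spray after planting, or postemergence at the one- to two-leaf stage, with test chemical in a non-phytotoxic solvent mixture plus surfactant. Plants stay in the greenhouse about 10 d before visual injury scoring on a 0 to 100 scale versus untreated controls.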

[2] = test system: barnyardgrass (Echinochloa crus-galli); assay: Test A preemergence; settings: Echinochloa crus-galli, pre-emergence, 240 h, preemergence, 0 to 100 scale where 0 is no effect and 100 is complete control, read-out: Barnyardgrass plant response rating
Summary of the method: as §1

[3] = test system: giant foxtail (Setaria faberii); assay: Test A preemergence; settings: Setaria faberi, pre-emergence, 240 h, preemergence, 0 to 100 scale where 0 is no effect and 100 is complete control, read-out: Foxtail, Giant plant response rating
Summary of the method: as §1

[4] = test system: pigweed (Amaranthus retroflexus); assay: Test A preemergence; settings: Amaranthus retroflexus, pre-emergence, 240 h, preemergence, 0 to 100 scale where 0 is no effect and 100 is complete control, read-out: Pigweed plant response rating
[5] = test system: ragweed (common ragweed, Ambrosia elatior); assay: Test A preemergence; settings: Ambrosia artemisiifolia, pre-emergence, 240 h, preemergence, 0 to 100 scale where 0 is no effect and 100 is complete control, read-out: Ragweed plant response rating
Summary of the method: as §1

[6] = test system: ryegrass, Italian (Italian ryegrass, Lolium multiflorum); assay: Test A preemergence; settings: Lolium multiflorum, pre-emergence, 240 h, preemergence, 0 to 100 scale where 0 is no effect and 100 is complete control, read-out: Ryegrass, Italian plant response rating
Summary of the method: as §1

[7] = test system: Galium (catchweed bedstraw, Galium aparine); assay: Test A postemergence; settings: Galium, post-emergence, 240 h, postemergence
Summary of the method: as §1

[8] = test system: Kochia (Kochia scoparia); assay: Test A postemergence; settings: Bassia scoparia, post-emergence, 240 h, postemergence
Summary of the method: as §1

[9] = test system: giant foxtail (Setaria faberii); assay: Test A postemergence; settings: Setaria faberi, post-emergence, 240 h, postemergence
Summary of the method: as §1

[10] = test system: pigweed (Amaranthus retroflexus); assay: Test A postemergence; settings: Amaranthus retroflexus, post-emergence, 240 h, postemergence
Summary of the method: as §1

[11] = test system: wheat (Triticum aestivum); assay: Test A postemergence; settings: Triticum aestivum, post-emergence, 240 h, postemergence
Summary of the method: as §1

[12] = test system: barnyardgrass (Echinochloa crus-galli); assay: Test B flooded paddy test; settings: Echinochloa crus-galli, 250 g ai/ha, Flood; 0 to 100 scale where 0 is no effect and 100 is complete control; read-out: Barnyardgrass plant response rating
Summary of the method: (§2)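 Visual ratings (0 none to 100 complete control) are relative to untreated plants, taken 13–15 d after treatment in a greenhouse. Test material went straight into floodwater standing 3 cm above the soil, kept constant, on plants at the 2-leaf stage.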

[13] = test system: ducksalad (Heteranthera limosa); assay: Test B flooded paddy test; settings: Heteranthera limosa, 250 g ai/ha, Flood; 0 to 100 scale where 0 is no effect and 100 is complete control; read-out: Ducksalad plant response rating
Summary of the method: as §2

[14] = test system: rice (Oryra sativa); assay: Test B flooded paddy test; settings: Oryza sativa, 250 g ai/ha, Flood; 0 to 100 scale where 0 is no effect and 100 is complete control; read-out: Rice plant response rating
Summary of the method: as §2

[15] = test system: sedge, umbrella (small-flower umbrella sedge, Cyperus difformis); assay: Test B flooded paddy test; settings: Cyperus difformis, 250 g ai/ha, Flood; 0 to 100 scale where 0 is no effect and 100 is complete control; read-out: Sedge, Umbrella plant response rating
Summary of the method: as §2

[16] = 125 g ai/ha, visual injury rating, approximately 10 d

COc1cc(C(F)(F)F)ccc1[C@H]1CNC(=O)[C@@H]1C(=O)Nc1cccc(F)c1F [Compound 1203]
pest or weed control at 125 g/ha [1, 16]: 20% | pest or weed control at 500 g/ha ([1]; 500 g ai/ha): 50% | pest or weed control at 125 g/ha [2, 16]: 80% | pest or weed control at 500 g/ha ([2]; 500 g ai/ha): 90% | pest or weed control at 125 g/ha [3, 16]: 80% | pest or weed control at 500 g/ha ([3]; 500 g ai/ha): 90% | pest or weed control at 125 g/ha [4, 16]: 0% | pest or weed control at 500 g/ha ([4]; 500 g ai/ha): 20% | pest or weed control at 125 g/ha [5, 16]: 30% | pest or weed control at 500 g/ha ([5]; 500 g ai/ha): 80% | pest or weed control at 125 g/ha [6, 16]: 0% | pest or weed control at 500 g/ha ([6]; 500 g ai/ha): 20% | pest or weed control at 125 g/ha ([7]; 125 g ai/ha, visual injury vs untreated controls after approx. 10 d, 0 = no effect, 100 = complete control, read-out: Galium plant response rating (0 to 100 scale)): 50% | pest or weed control at 500 g/ha ([7]; 500 g ai/ha, 0 to 100 scale, 0 is no effect, 100 is complete control, read-out: Galium plant response rating): 60% | pest or weed control at 125 g/ha ([8]; 125 g ai/ha, visual injury vs untreated controls after approx. 10 d, 0 = no effect, 100 = complete control, read-out: Kochia plant response rating (0 to 100 scale)): 40% | pest or weed control at 500 g/ha ([8]; 500 g ai/ha, 0 to 100 scale, 0 is no effect, 100 is complete control, read-out: Kochia plant response rating): 60% | pest or weed control at 125 g/ha ([9]; 125 g ai/ha, visual injury vs untreated controls after approx. 10 d, 0 = no effect, 100 = complete control, read-out: Foxtail, Giant plant response rating (0 to 100 scale)): 90% | pest or weed control at 500 g/ha ([9]; 500 g ai/ha, 0 to 100 scale, 0 is no effect, 100 is complete control, read-out: Foxtail, Giant plant response rating): 90% | pest or weed control at 125 g/ha ([10]; 125 g ai/ha, visual injury vs untreated controls after approx. 10 d, 0 = no effect, 100 = complete control, read-out: Pigweed plant response rating (0 to 100 scale)): 0% | pest or weed control at 500 g/ha ([10]; 500 g ai/ha, 0 to 100 scale, 0 is no effect, 100 is complete control, read-out: Pigweed plant response rating): 20% | plant injury at 125 g/ha ([11]; 125 g ai/ha, visual injury vs untreated controls after approx. 10 d, 0 = no effect, 100 = complete control, read-out: Wheat plant response rating (0 to 100 scale)): 0% | plant injury at 500 g/ha ([11]; 500 g ai/ha, 0 to 100 scale, 0 is no effect, 100 is complete control, read-out: Wheat plant response rating): 50% | pest or weed control at 250 g/ha [12]: 30% | pest or weed control at 250 g/ha [13]: 100% | pest or weed control at 250 g/ha [14]: 0% | pest or weed control at 250 g/ha [15]: 0%
